Assay results reported in patent US20230192705A1, “SHP2 INHIBITORS, COMPOSITIONS AND USES THEREOF” (Betta Pharmaceuticals Co., Ltd, priority 2020, published 2023).

Target: T1, SHP2 (Homo sapiens, UniProt Q06124)
T1 sequence (Q06124 1-593): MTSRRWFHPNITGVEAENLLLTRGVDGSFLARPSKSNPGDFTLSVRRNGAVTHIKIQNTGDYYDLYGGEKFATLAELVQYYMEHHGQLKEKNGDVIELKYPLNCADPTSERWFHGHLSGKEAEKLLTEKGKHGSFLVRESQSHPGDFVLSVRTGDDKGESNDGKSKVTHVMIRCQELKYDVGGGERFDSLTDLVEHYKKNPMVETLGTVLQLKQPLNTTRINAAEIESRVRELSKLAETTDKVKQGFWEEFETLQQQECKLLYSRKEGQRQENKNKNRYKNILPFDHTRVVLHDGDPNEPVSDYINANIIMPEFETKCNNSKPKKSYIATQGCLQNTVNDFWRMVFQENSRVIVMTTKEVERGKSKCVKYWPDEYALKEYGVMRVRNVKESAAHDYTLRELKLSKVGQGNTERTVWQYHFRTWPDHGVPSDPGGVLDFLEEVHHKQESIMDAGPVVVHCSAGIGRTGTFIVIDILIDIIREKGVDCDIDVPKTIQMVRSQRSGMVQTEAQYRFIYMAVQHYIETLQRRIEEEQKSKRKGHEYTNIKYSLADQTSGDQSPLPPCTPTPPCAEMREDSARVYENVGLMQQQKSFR
Experiment: SHP2 allosteric inhibitor enzyme activity assay (DiFMUP fluorescence)
Format: biochemical
Settings: class symbols
How it was run: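 SHP2 activated by 0.5 μM IRS1_pY1172(dPEG8)pY1222 peptide, 0.2 ng enzyme per well, 1 h at room temperature with compound (1 μM top, 3-fold series), then DiFMUP substrate 1 h. Buffer: 60 mM HEPES, 75 mM NaCl, 75 mM KCl, 0.05% BRIJ-35, 1 mM EDTA, 5 mM DTT. Fluorescence ex 340/em 450 nm; IC50 by variable-slope fit.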

| Structure (SMILES) | IC50 |
| --- | --- |
| C[C@@H]1OCC2(CCN(c3ncc(C4(c5ccccc5)CC4)c(=O)n3C)CC2)[C@@H]1N [Example 263, 2-((3S,4S)-4-amino-3-methyl-2-oxa-8-azaspiro[4.5]decan-8-yl)-3-methyl-5-(1-phenylcyclopropyl)pyrimidin-4(3H)-one] | > 60 nM |
| C[C@@H]1OCC2(CCN(c3nc(N)c(C4(c5ccccc5)CC4)c(=O)n3C)CC2)[C@@H]1N [Example 264, 6-amino-2-((3S,4S)-4-amino-3-methyl-2-oxa-8-azaspiro[4.5]decan-8-yl)-3-methyl-5-(1-phenylcyclopropyl)pyrimidin-4(3H)-one] | > 60 nM |
| C[C@@H]1OCC2(CCN(C3=NC(N)=C(C4(c5ccccc5)CC4)C4=NCCCN43)CC2)[C@@H]1N [Example 265, (3S,4S)-8-(8-amino-9-(1-phenylcyclopropyl)-3,4-dihydro-2H-pyrimido[1,6-a]pyrimidin-6-yl)-3-methyl-2-oxa-8-azaspiro[4.5]decan-4-amine] | > 60 nM |
| C[C@@H]1OCC2(CCN(C3=NC4=NCCN4C(N)=C3C3(c4ccccc4)CC3)CC2)[C@@H]1N [Example 266, (3S,4S)-8-(5-amino-6-(1-phenylcyclopropyl)-2,3-dihydroimidazo[1,2-a]pyrimidin-7-yl)-3-methyl-2-oxa-8-azaspiro[4.5]decan-4-amine] | > 60 nM |
| C[C@@H]1OCC2(CCN(c3ncc4c(C5(c6ccccc6)CC5)n[nH]c4n3)CC2)[C@@H]1N [Example 267, (3S,4S)-3-methyl-8-(3-(1-phenylcyclopropyl)-1H-pyrazolo[3,4-d]pyrimidin-6-yl)-2-oxa-8-azaspiro[4.5]decan-4-amine] | 20 to 60 nM |
| C[C@@H]1OCC2(CCN(c3cnc4c(C5(c6ccsc6)CC5)n[nH]c4n3)CC2)[C@@H]1N [Example 268, (3S,4S)-3-methyl-8-(3-(1-(thiophen-3-yl)cyclopropyl)-1H-pyrazolo[3,4-b]pyrazin-6-yl)-2-oxa-8-azaspiro[4.5]decan-4-amine] | 20 to 60 nM |
| C[C@@H]1OCC2(CCN(c3cnc4c(C5(c6ccccc6)CC5)c[nH]c4n3)CC2)[C@@H]1N [Example 269, (3S,4S)-3-methyl-8-(7-(1-phenylcyclopropyl)-5H-pyrrolo[2,3-b]pyrazin-3-yl)-2-oxa-8-azaspiro[4.5]decan-4-amine] | > 60 nM |
| C[C@@H]1OCC2(CCN(c3nc4[nH]nc(C5(c6ccccc6)CC5)c4c(=O)[nH]3)CC2)[C@@H]1N [Example 270, 6-((3S,4S)-4-amino-3-methyl-2-oxa-8-azaspiro[4.5]decan-8-yl)-3-(1-phenylcyclopropyl)-1,5-dihydro-4H-pyrazolo[3,4-d]pyrimidin-4-one] | 20 to 60 nM |
| N[C@@H]1COCC12CCN(c1nc3[nH]nc(C4(c5ccccc5)CC4)c3c(=O)[nH]1)CC2 [Example 271, (S)-6-(4-amino-2-oxa-8-azaspiro[4.5]decan-8-yl)-3-(1-phenylcyclopropyl)-1,5-dihydro-4H-pyrazolo[3,4-d]pyrimidin-4-one] | 20 to 60 nM |
| C[C@@H]1OCC2(CCN(c3nc4[nH]nc(C5(c6ccccc6)CC5)c4c(=O)n3C)CC2)[C@@H]1N [Example 272, 6-((3S,4S)-4-amino-3-methyl-2-oxa-8-azaspiro[4.5]decan-8-yl)-5-methyl-3-(1-phenylcyclopropyl)-1,5-dihydro-4H-pyrazolo[3,4-d]pyrimidin-4-one] | 20 to 60 nM |
| C[C@@H]1OCC2(CCN(c3nc4[nH]nc(C5(c6ccncn6)CC5)c4c(=O)[nH]3)CC2)[C@@H]1N [Example 273, 6-((3S,4S)-4-amino-3-methyl-2-oxa-8-azaspiro[4.5]decan-8-yl)-3-(1-(pyrimidin-4-yl)cyclopropyl)-1,5-dihydro-4H-pyrazolo[3,4-d]pyrimidin-4-one] | 20 to 60 nM |
| C[C@@H]1OCC2(CCN(c3nc4[nH]nc(C5(c6ccncc6)CC5)c4c(=O)[nH]3)CC2)[C@@H]1N [Example 274, 6-((3S,4S)-4-amino-3-methyl-2-oxa-8-azaspiro[4.5]decan-8-yl)-3-(1-(pyridin-4-yl)cyclopropyl)-1,5-dihydro-4H-pyrazolo[3,4-d]pyrimidin-4-one] | 20 to 60 nM |
| C[C@@H]1OCC2(CCN(c3nc4[nH]nc(C5(c6cccnc6)CC5)c4c(=O)[nH]3)CC2)[C@@H]1N [Example 275, 6-((3S,4S)-4-amino-3-methyl-2-oxa-8-azaspiro[4.5]decan-8-yl)-3-(1-(pyridin-3-yl)cyclopropyl)-1,5-dihydro-4H-pyrazolo[3,4-d]pyrimidin-4-one] | 20 to 60 nM |
| C[C@@H]1OCC2(CCN(c3nc4[nH]nc(C5(c6ccccn6)CC5)c4c(=O)[nH]3)CC2)[C@@H]1N [Example 276, 6-((3S,4S)-4-amino-3-methyl-2-oxa-8-azaspiro[4.5]decan-8-yl)-3-(1-(pyridin-2-yl)cyclopropyl)-1,5-dihydro-4H-pyrazolo[3,4-d]pyrimidin-4-one] | 20 to 60 nM |
| C[C@@H]1OCC2(CCN(c3nc4[nH]nc(C5(c6nccs6)CC5)c4c(=O)[nH]3)CC2)[C@@H]1N [Example 277, 6-((3S,4S)-4-amino-3-methyl-2-oxa-8-azaspiro[4.5]decan-8-yl)-3-(1-(thiazol-2-yl)cyclopropyl)-1,5-dihydro-4H-pyrazolo[3,4-d]pyrimidin-4-one] | 20 to 60 nM |
| C[C@@H]1OCC2(CCN(c3nc4[nH]nc(C5(c6cccs6)CC5)c4c(=O)[nH]3)CC2)[C@@H]1N [Example 278, 6-((3S,4S)-4-amino-3-methyl-2-oxa-8-azaspiro[4.5]decan-8-yl)-3-(1-(thiophen-2-yl)cyclopropyl)-1,5-dihydro-4H-pyrazolo[3,4-d]pyrimidin-4-one] | 20 to 60 nM |
| C[C@@H]1OCC2(CCN(c3nc4[nH]nc(C5(c6ncco6)CC5)c4c(=O)[nH]3)CC2)[C@@H]1N [Example 279, 6-((3S,4S)-4-amino-3-methyl-2-oxa-8-azaspiro[4.5]decan-8-yl)-3-(1-(oxazol-2-yl)cyclopropyl)-1,5-dihydro-4H-pyrazolo[3,4-d]pyrimidin-4-one] | 20 to 60 nM |
| C[C@@H]1OCC2(CCN(c3nc4[nH]nc(C5(c6nncs6)CC5)c4c(=O)[nH]3)CC2)[C@@H]1N [Example 280, 3-(1-(1,3,4-thiadiazol-2-yl)cyclopropyl)-6-((3S,4S)-4-amino-3-methyl-2-oxa-8-azaspiro[4.5]decan-8-yl)-1,5-dihydro-4H-pyrazolo[3,4-d]pyrimidin-4-one] | > 60 nM |
| N[C@@H]1COCC12CCN(c1nc3[nH]nc(C4(c5nc6ccccc6o5)CC4)c3c(=O)[nH]1)CC2 [Example 282, (S)-6-(4-amino-2-oxa-8-azaspiro[4.5]decan-8-yl)-3-(1-(benzo[d]oxazol-2-yl)cyclopropyl)-1,5-dihydro-4H-pyrazolo[3,4-d]pyrimidin-4-one] | 20 to 60 nM |
| N[C@@H]1COCC12CCN(c1nc3[nH]nc(C4(c5nc6ccccc6[nH]5)CC4)c3c(=O)[nH]1)CC2 [Example 283, (S)-3-(1-(1H-benzo[d]imidazol-2-yl)cyclopropyl)-6-(4-amino-2-oxa-8-azaspiro[4.5]decan-8-yl)-1,5-dihydro-4H-pyrazolo[3,4-d]pyrimidin-4-one] | > 60 nM |
| C[C@@H]1OCC2(CCN(c3nc4[nH]nc(C5(c6nc7ccccc7o6)CC5)c4c(=O)[nH]3)CC2)[C@@H]1N [Example 284, 6-((3S,4S)-4-amino-3-methyl-2-oxa-8-azaspiro[4.5]decan-8-yl)-3-(1-(benzo[d]oxazol-2-yl)cyclopropyl)-1,5-dihydro-4H-pyrazolo[3,4-d]pyrimidin-4-one] | 20 to 60 nM |
| C[C@@H]1OCC2(CCN(c3nc4[nH]nc(C5(c6cc7ccccc7[nH]6)CC5)c4c(=O)[nH]3)CC2)[C@@H]1N [Example 285, 3-(1-(1H-indol-2-yl)cyclopropyl)-6-((3S,4S)-4-amino-3-methyl-2-oxa-8-azaspiro[4.5]decan-8-yl)-1,5-dihydro-4H-pyrazolo[3,4-d]pyrimidin-4-one] | > 60 nM |
| C[C@@H]1OCC2(CCN(c3nc4[nH]nc(C5(c6ccc7c(c6)OCO7)CC5)c4c(=O)[nH]3)CC2)[C@@H]1N [Example 286, 6-((3S,4S)-4-amino-3-methyl-2-oxa-8-azaspiro[4.5]decan-8-yl)-3-(1-(benzo[d][1,3]dioxol-5-yl)cyclopropyl)-1,5-dihydro-4H-pyrazolo[3,4-d]pyrimidin-4-one] | 20 to 60 nM |
| C[C@@H]1OCC2(CCN(c3nc4[nH]nc(C5(c6ccc7ocnc7c6)CC5)c4c(=O)[nH]3)CC2)[C@@H]1N [Example 287, 6-((3S,4S)-4-amino-3-methyl-2-oxa-8-azaspiro[4.5]decan-8-yl)-3-(1-(benzo[d]oxazol-5-yl)cyclopropyl)-1,5-dihydro-4H-pyrazolo[3,4-d]pyrimidin-4-one] | 20 to 60 nM |
| COc1cc(F)cc(C2(c3n[nH]c4nc(N5CCC6(CC5)CO[C@@H](C)[C@H]6N)[nH]c(=O)c34)CC2)c1 [Example 288, 6-((3S,4S)-4-amino-3-methyl-2-oxa-8-azaspiro[4.5]decan-8-yl)-3-(1-(3-fluoro-5-methoxyphenyl)cyclopropyl)-1,5-dihydro-4H-pyrazolo[3,4-d]pyrimidin-4-one] | > 60 nM |
